We go through 18 molecules from US8969360B2, “Compounds useful as inhibitors of ATR kinase” (Vertex Pharmaceuticals Incorporated, priority 2013, dated 2015).

One experiment deals with T1, ATR kinase (Homo sapiens, UniProt Q13535).
T1 construct: Assays were carried out at 25° C. in the presence of 5 nM full-length ATR
The experiment can be described thus: ATR Inhibition Assay (radioactive-phosphate incorporation). Type of experiment: biochemical. The conditions noted are these: Ki(app); 5 nM full-length ATR, 10 μM ATP, 800 μM target peptide, 25° C. As to the method: Compounds were screened for their ability to inhibit ATR kinase using a radioactive-phosphate incorporation assay. Assays were carried out in a mixture of 50 mM Tris/HCl (pH 7.5), 10 mM MgCl2 and 1 mM DTT. Final substrate concentrations were 10 μM [γ-33P]ATP (3 mCi 33P ATP/mmol ATP, Perkin Elmer) and 800 μM target peptide (ASELPASQPQPFSAKKK (SEQ. ID NO: 1)).
Assays were carried out at 25° C. in the presence of 5 nM full-length ATR. An assay stock buffer solution was prepared containing all of the reagents listed above, with the exception of ATP and the test compound of interest. 13.5 μL of the stock solution was placed in a 96 well plate followed by addition of 2 μL of DMSO stock containing serial dilutions of the test compound (typically starting from a final concentration of 15 μM with 3-fold serial dilutions) in duplicate (final DMSO concentration 7%). The plate was pre-incubated for 10 minutes at 25° C. and the reaction initiated by addition of 15 μL [γ-33P]ATP (final concentration 10 μM).
The reaction was stopped after […] by the addition of 30 μL, 0.1M phosphoric acid containing 2 mM ATP. A multiscreen phosphocellulose filter 96-well plate (Millipore, Cat no. MAPHN0B50) was pretreated with 100 μL 0.2M phosphoric acid prior to the addition of 45 μL of the stopped assay mixture. The plate was washed with 5×200 μL 0.2M phosphoric acid. After drying, 100 μL Optiphase ‘SuperMix’ liquid scintillation cocktail (Perkin Elmer) was added to the well prior to scintillation counting (1450 Microbeta Liquid Scintillation Counter, Wallac).
After removing mean background values for all of the data points, Ki(app) data were calculated from non-linear regression analysis of the initial rate data using the Prism software package (GraphPad Prism version 3.0cx for Macintosh, GraphPad Software, San Diego Calif., USA).
Compounds with a Ki value of <0.01 μM are marked with “+++.” Compounds with a Ki value >0.01 μM but <1 μM are marked with “++.” Compounds with a Ki value >1 μM but <5 μM are marked with “+.”

For experiment [1], the system named is HCT116 colorectal cancer cells. The experiment can be described thus: Cisplatin Sensitization Assay (96 h cell viability MTS). Type of experiment: cell-based. The conditions noted are these: concentration of compound required to reduce the IC50 of Cisplatin alone by at least 3-fold; HCT116, 96 h MTS. As for the experimental part:
Compounds can be screened for their ability to sensitize HCT116 colorectal cancer cells to Cisplatin using a 96 h cell viability (MTS) assay. […] Compounds and Cisplatin are then both added simultaneously to the cell media in 2-fold serial dilutions from a top final concentration of 10 μM as a full matrix of concentrations in a final cell volume of 200 μl, and the cells are then incubated at 37° C. in 5% CO2. After 96 h, 40 μl of MTS reagent (Promega G358a) is added to each well and the cells are incubated for 1 h at 37° C. in 5% CO2. Finally, absorbance is measured at 490 nm using a SpectraMax Plus 384 reader (Molecular Devices) and the concentration of compound required to reduce the IC50 of Cisplatin alone by at least 3-fold (to 1 decimal place) can be reported.
Compounds with a Cisplatin sensitization value of <0.02 μM are marked with “+++.” Compounds with a Cisplatin sensitization value>0.02 μM but <0.2 μM are marked with “++.” Compounds with a Cisplatin sensitization value >0.2 μM but <5 μM are marked with “+.”

Some results are limits rather than exact numbers.

T1 sequence (Q13535 whole entry): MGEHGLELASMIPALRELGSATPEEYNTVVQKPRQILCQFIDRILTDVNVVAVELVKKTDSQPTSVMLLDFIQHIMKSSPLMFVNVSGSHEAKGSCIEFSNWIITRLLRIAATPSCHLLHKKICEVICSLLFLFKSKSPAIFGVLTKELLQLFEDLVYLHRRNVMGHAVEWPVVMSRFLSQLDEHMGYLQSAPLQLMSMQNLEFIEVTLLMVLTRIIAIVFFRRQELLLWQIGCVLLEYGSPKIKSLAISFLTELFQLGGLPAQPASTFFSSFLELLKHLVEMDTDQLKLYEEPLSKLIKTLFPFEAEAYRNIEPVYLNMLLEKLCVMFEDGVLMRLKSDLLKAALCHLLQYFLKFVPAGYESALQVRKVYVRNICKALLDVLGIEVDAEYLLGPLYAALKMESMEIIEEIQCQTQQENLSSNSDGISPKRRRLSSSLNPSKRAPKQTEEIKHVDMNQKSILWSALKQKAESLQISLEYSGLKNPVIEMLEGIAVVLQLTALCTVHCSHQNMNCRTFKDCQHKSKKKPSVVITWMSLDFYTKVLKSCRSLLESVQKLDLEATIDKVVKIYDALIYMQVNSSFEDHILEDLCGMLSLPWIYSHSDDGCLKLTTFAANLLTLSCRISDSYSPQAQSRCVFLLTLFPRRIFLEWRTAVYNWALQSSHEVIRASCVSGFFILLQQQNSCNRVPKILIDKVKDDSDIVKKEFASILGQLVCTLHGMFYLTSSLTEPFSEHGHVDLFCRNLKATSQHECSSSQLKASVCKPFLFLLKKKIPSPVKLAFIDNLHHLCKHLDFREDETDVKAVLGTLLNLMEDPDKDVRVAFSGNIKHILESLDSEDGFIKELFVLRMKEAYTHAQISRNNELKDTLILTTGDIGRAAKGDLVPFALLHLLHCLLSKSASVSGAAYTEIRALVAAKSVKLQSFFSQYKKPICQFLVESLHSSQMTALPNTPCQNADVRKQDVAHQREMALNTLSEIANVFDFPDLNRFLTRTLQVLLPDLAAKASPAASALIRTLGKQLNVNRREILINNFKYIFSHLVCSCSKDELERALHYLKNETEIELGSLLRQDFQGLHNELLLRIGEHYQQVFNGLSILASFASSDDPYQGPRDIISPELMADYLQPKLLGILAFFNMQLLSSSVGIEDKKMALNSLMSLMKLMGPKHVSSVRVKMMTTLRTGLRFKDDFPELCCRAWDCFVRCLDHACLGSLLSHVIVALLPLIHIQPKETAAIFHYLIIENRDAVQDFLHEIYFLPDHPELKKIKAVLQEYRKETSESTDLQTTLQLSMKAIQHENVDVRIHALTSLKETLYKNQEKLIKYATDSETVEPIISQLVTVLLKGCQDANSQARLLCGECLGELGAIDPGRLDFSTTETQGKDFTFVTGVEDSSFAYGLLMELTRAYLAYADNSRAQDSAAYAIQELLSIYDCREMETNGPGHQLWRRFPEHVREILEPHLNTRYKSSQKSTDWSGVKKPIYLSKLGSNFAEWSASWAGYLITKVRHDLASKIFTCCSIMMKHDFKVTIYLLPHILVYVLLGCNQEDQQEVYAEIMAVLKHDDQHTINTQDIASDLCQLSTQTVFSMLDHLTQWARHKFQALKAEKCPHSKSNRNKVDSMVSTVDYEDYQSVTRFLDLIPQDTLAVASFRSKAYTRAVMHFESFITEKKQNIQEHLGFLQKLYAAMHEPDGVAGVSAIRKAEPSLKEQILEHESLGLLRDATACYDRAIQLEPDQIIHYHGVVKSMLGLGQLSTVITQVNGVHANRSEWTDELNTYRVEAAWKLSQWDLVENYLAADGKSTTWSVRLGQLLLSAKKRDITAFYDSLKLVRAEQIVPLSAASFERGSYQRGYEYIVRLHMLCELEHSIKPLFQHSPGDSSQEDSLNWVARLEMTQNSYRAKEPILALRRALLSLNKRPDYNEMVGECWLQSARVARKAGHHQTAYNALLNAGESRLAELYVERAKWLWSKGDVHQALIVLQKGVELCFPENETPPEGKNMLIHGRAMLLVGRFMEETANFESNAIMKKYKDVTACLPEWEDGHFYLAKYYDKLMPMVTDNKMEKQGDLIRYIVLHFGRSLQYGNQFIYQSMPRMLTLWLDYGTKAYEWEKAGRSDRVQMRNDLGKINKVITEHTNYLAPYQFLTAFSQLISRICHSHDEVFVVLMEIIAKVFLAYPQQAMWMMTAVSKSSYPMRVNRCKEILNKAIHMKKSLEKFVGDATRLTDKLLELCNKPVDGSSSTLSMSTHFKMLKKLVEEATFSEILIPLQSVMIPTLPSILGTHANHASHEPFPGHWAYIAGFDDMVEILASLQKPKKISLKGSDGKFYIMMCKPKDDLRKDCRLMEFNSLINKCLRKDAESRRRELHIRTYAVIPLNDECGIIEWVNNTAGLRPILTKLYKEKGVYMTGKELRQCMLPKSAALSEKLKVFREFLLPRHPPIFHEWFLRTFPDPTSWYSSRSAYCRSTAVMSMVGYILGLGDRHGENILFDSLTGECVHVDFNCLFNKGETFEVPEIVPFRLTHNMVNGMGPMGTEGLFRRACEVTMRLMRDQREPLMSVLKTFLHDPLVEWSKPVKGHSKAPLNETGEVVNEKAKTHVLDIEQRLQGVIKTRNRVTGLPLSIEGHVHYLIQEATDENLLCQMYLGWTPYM

For the molecule `COc1ccncc1NC(=O)c1c(N)nn2ccc(N3CCNCC3)nc12` [I-O-76, 2-amino-N-(4-methoxypyridin-3-yl)-5-(piperazin-1-yl)pyrazolo[1,5-a]pyrimidine-3-carboxamide], the Ki at ATR kinase lay within 0.01 to 1 µM. Further, the “Synergy with Cisplatin” value in experiment [1] is “++ (Compounds with a Cisplatin sensitization value>0.02 μM but <0.2 μM are marked with “++.”)”.
Regarding `CC(C)Oc1ccncc1NC(=O)c1c(N)nn2ccc(N3CCN(C)CC3)nc12` [I-O-79, 2-amino-N-(4-isopropoxypyridin-3-yl)-5-(4-methylpiperazin-1-yl)pyrazolo[1,5-a]pyrimidine-3-carboxamide], the Ki on ATR kinase lay within 1 to 5 µM. Moreover, in experiment [1], the “Synergy with Cisplatin” value was “+ (Compounds with a Cisplatin sensitization value >0.2 μM but <5 μM are marked with “+.”)”.
In the case of `COc1ccncc1NC(=O)c1c(N)nn2ccc(OCCN(C)C)nc12` [I-O-62, 2-amino-5-(2-(dimethylamino)ethoxy)-N-(4-methoxypyridin-3-yl)pyrazolo[1,5-a]pyrimidine-3-carboxamide], the Ki at ATR kinase is 0.01 to 1 µM. For the same molecule, in experiment [1], the “Synergy with Cisplatin” value was “++ (Compounds with a Cisplatin sensitization value>0.02 μM but <0.2 μM are marked with “++.”)”.
In the same order, the values of `Nc1nn2ccc(C(F)(F)F)nc2c1C(=O)Nc1cnccc1OCCN1CCOCC1` [I-O-20, 2-amino-N-(4-(2-morpholinoethoxy)pyridin-3-yl)-5-(trifluoromethyl)pyrazolo[1,5-a]pyrimidine-3-carboxamide] are 0.01 to 1 µM and “++ (Compounds with a Cisplatin sensitization value>0.02 μM but <0.2 μM are marked with “++.”)”.
With `COCCN1CCC[C@@H](Oc2ccncc2NC(=O)c2c(N)nn3ccc(C(F)(F)F)nc23)C1` [I-O-43, (R)-2-amino-N-(4-((1-(2-methoxyethyl)piperidin-3-yl)oxy)pyridin-3-yl)-5-(trifluoromethyl)pyrazolo[1,5-a]pyrimidine-3-carboxamide], at ATR kinase, the Ki was 0.01 to 1 µM. Further, the “Synergy with Cisplatin” value in experiment [1] was “++ (Compounds with a Cisplatin sensitization value>0.02 μM but <0.2 μM are marked with “++.”)”.
Turning to `COc1ccncc1NC(=O)c1c(N)nn2ccc(N3CCC(N(C)C)CC3)nc12` [I-O-80, 2-amino-5-(4-(dimethylamino)piperidin-1-yl)-N-(4-methoxypyridin-3-yl)pyrazolo[1,5-a]pyrimidine-3-carboxamide], the Ki on ATR kinase was in the range of 0.01 to 1 µM. In experiment [1], the “Synergy with Cisplatin” value is given as “+ (Compounds with a Cisplatin sensitization value >0.2 μM but <5 μM are marked with “+.”)”.
Consider `COc1ccncc1NC(=O)c1c(N)nn2ccc(N3CCN4CCC[C@@H]4C3)nc12` [I-O-75, (R)-2-amino-5-(hexahydropyrrolo[1,2-a]pyrazin-2(1H)-yl)-N-(4-methoxypyridin-3-yl)pyrazolo[1,5-a]pyrimidine-3-carboxamide], for which, on ATR kinase, the Ki lay within 0.01 to 1 µM. In experiment [1], the “Synergy with Cisplatin” value was “++ (Compounds with a Cisplatin sensitization value>0.02 μM but <0.2 μM are marked with “++.”)”.
For the molecule `CN(C)C1CCC(Oc2ccncc2NC(=O)c2c(N)nn3ccc(C(F)(F)F)nc23)CC1` (stereo not drawn) [I-O-35, 2-amino-N-(4-((4-(dimethylamino)cyclohexyl)oxy)pyridin-3-yl)-5-(trifluoromethyl)pyrazolo[1,5-a]pyrimidine-3-carboxamide], the Ki at ATR kinase fell in the range of 0.01 to 1 µM. Further, the “Synergy with Cisplatin” value in experiment [1] is on record as “+++ (Compounds with a Cisplatin sensitization value of <0.02 μM are marked with “+++.”)”.
Turning to `COc1ccncc1NC(=O)c1c(N)nn2ccc(OC3CCN(C)CC3)nc12` [I-O-61, 2-amino-N-(4-methoxypyridin-3-yl)-5-((1-methylpiperidin-4-yl)oxy)pyrazolo[1,5-a]pyrimidine-3-carboxamide], on ATR kinase, the Ki was 0.01 to 1 µM. Moreover, the “Synergy with Cisplatin” value in experiment [1] is listed as “++ (Compounds with a Cisplatin sensitization value>0.02 μM but <0.2 μM are marked with “++.”)”.
In the same order, the values of `Nc1nn2ccc(C(F)(F)F)nc2c1C(=O)Nc1cnccc1OCCO` [I-O-13, 2-amino-N-(4-(2-hydroxyethoxy)pyridin-3-yl)-5-(trifluoromethyl)pyrazolo[1,5-a]pyrimidine-3-carboxamide] are under 0.01 µM and “+++ (Compounds with a Cisplatin sensitization value of <0.02 μM are marked with “+++.”)”.
Regarding `COc1ccncc1NC(=O)c1c(N)nn2ccc(OC3CCN(C)C3)nc12` (stereo not drawn) [I-O-57, 2-amino-N-(4-methoxypyridin-3-yl)-5-((1-methylpyrrolidin-3-yl)oxy)pyrazolo[1,5-a]pyrimidine-3-carboxamide], at ATR kinase, the Ki fell in the range of 0.01 to 1 µM. Further, in experiment [1], the “Synergy with Cisplatin” value is “++ (Compounds with a Cisplatin sensitization value>0.02 μM but <0.2 μM are marked with “++.”)”.
In the same order, the values of `COc1ccncc1NC(=O)c1c(N)nn2ccc(OCCCN3CCC3)nc12` [I-O-63, 2-amino-5-(3-(azetidin-1-yl)propoxy)-N-(4-methoxypyridin-3-yl)pyrazolo[1,5-a]pyrimidine-3-carboxamide] are 0.01 to 1 µM and “++ (Compounds with a Cisplatin sensitization value>0.02 μM but <0.2 μM are marked with “++.”)”.
As for `CC(C)Oc1ccncc1NC(=O)c1c(N)nn2ccc(OCCN(C)C)nc12` [I-O-64, 2-amino-5-(2-(dimethylamino)ethoxy)-N-(4-isopropoxypyridin-3-yl)pyrazolo[1,5-a]pyrimidine-3-carboxamide], on ATR kinase, the Ki fell in the range of 1 to 5 µM. The “Synergy with Cisplatin” value in experiment [1] is “+ (Compounds with a Cisplatin sensitization value >0.2 μM but <5 μM are marked with “+.”)”.
As for `CN(C)[C@H]1CC[C@@H](Oc2ccncc2NC(=O)c2c(N)nn3ccc(C(F)(F)F)nc23)CC1` [I-O-30, 2-amino-N-(4-(((1s,4s)-4-(dimethylamino)cyclohexyl)oxy)pyridin-3-yl)-5-(trifluoromethyl)pyrazolo[1,5-a]pyrimidine-3-carboxamide], the Ki on ATR kinase fell in the range of 0.01 to 1 µM. Also, the “Synergy with Cisplatin” value in experiment [1] is on record as “+++ (Compounds with a Cisplatin sensitization value of <0.02 μM are marked with “+++.”)”.
`CN1CC[C@@H](Oc2ccncc2NC(=O)c2c(N)nn3ccc(C(F)(F)F)nc23)C1` [I-O-19, (R)-2-amino-N-(4-((1-methylpyrrolidin-3-yl)oxy)pyridin-3-yl)-5-(trifluoromethyl)pyrazolo[1,5-a]pyrimidine-3-carboxamide]: the Ki on ATR kinase was 0.01 to 1 µM. Also, in experiment [1], the “Synergy with Cisplatin” value is reported as “++ (Compounds with a Cisplatin sensitization value>0.02 μM but <0.2 μM are marked with “++.”)”.
Taken in the same sequence, the figures for `COc1ccncc1NC(=O)c1c(N)nn2ccc(OCCN3CCC3)nc12` [I-O-59, 2-amino-5-(2-(azetidin-1-yl)ethoxy)-N-(4-methoxypyridin-3-yl)pyrazolo[1,5-a]pyrimidine-3-carboxamide] were 0.01 to 1 µM and “++ (Compounds with a Cisplatin sensitization value>0.02 μM but <0.2 μM are marked with “++.”)”.
Take `C=CCOCc1ccn2nc(N)c(C(=O)Nc3cnccc3OC)c2n1` [I-O-55, 5-((allyloxy)methyl)-2-amino-N-(4-methoxypyridin-3-yl)pyrazolo[1,5-a]pyrimidine-3-carboxamide]: the Ki on ATR kinase was 0.01 to 1 µM. In addition, in experiment [1], the “Synergy with Cisplatin” value is given as “+++ (Compounds with a Cisplatin sensitization value of <0.02 μM are marked with “+++.”)”.
Turning to `Nc1nn2ccc(C(F)(F)F)nc2c1C(=O)Nc1cnccc1OCC1CC1` [I-O-6, 2-amino-N-(4-(cyclopropylmethoxy)pyridin-3-yl)-5-(trifluoromethyl)pyrazolo[1,5-a]pyrimidine-3-carboxamide], the Ki at ATR kinase was under 0.01 µM. Further, the “Synergy with Cisplatin” value in experiment [1] is listed as “+++ (Compounds with a Cisplatin sensitization value of <0.02 μM are marked with “+++.”)”.
